Test results taken from ChEMBL document CHEMBL2202962, “The discovery of a novel series of glucokinase activators based on a pyrazolopyrimidine scaffold” (Bioorg Med Chem Lett, 2012).
In brackets after ≈: the same amount, converted by molar mass.

Legend:
Hexokinase-4 = biological target: T1, Hexokinase-4 (Homo sapiens, UniProt P35557); experiment: Activation of human glucokinase
T1 sequence (P35557 whole entry): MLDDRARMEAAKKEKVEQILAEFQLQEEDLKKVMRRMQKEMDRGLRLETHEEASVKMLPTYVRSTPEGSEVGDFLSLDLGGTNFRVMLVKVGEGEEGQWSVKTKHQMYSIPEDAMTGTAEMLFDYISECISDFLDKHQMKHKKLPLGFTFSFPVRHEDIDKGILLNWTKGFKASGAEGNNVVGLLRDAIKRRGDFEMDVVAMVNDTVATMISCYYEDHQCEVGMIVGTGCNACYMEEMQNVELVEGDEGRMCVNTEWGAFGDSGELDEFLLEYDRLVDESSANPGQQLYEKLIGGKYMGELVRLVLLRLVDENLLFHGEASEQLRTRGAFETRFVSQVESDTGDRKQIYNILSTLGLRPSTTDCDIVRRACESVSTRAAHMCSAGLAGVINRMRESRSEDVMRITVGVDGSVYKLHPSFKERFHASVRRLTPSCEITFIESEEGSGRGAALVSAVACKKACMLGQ

[1] = Octanol-water partition coefficient, log D of the compound by HPLC analysis
Liver microsomes = experiment: Drug metabolism in human liver microsomes assessed as glutathione adduct formation relative to clozapine; type: ADME, Microsome
[2] = biological target: Voltage-gated inwardly rectifying potassium channel KCNH2 (Homo sapiens, UniProt Q12809)
Chain of Voltage-gated inwardly rectifying potassium channel KCNH2 (Q12809 whole entry): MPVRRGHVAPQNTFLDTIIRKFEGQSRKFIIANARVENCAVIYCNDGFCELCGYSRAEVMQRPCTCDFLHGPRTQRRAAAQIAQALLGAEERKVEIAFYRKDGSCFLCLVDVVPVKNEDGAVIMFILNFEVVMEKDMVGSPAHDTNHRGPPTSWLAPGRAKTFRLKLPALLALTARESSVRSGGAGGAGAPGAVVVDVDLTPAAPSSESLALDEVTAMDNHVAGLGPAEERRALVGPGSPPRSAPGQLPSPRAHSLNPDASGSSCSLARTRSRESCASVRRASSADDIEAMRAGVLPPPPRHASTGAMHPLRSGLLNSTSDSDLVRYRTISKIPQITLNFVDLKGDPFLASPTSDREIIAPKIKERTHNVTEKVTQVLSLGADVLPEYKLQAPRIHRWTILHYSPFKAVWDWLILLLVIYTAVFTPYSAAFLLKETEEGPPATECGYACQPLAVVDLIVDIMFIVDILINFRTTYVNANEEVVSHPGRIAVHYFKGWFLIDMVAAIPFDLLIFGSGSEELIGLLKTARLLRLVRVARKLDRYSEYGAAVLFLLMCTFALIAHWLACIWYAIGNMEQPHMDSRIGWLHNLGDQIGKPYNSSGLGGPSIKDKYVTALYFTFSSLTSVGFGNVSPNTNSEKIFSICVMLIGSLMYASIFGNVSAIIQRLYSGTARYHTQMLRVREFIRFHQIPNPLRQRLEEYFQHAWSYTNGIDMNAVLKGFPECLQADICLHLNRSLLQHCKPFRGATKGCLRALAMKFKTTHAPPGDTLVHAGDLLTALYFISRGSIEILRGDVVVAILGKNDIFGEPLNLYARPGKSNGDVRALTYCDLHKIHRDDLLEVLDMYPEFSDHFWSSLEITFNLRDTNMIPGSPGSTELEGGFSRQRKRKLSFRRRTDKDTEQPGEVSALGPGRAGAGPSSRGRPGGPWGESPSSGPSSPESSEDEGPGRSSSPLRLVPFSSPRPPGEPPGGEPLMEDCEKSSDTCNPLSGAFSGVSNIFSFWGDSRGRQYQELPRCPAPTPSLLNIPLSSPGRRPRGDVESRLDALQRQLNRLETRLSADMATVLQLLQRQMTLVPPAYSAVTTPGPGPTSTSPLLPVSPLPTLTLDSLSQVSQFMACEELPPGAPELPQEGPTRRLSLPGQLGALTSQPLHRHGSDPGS

Hepatocyte = experiment: Intrinsic clearance in rat hepatocytes assessed per 10^6 cells; type: ADME, cell-based
[3] = Solubility of the compound
[4] = Volume of distribution at steady state in rat; type: ADME, organism-based; settings: in vivo, read-out: Vdss
[5] = Clearance in rat; type: ADME, organism-based; settings: in vivo
[6] = Oral bioavailability in rat; type: ADME, organism-based; settings: in vivo

Row | Structure (SMILES) | EC50 (Hexokinase-4) | logD [1] | fold change (FC) (Liver microsomes) | other results
1 | Cc1csc(NC(=O)CSc2ncnc3c2cnn3-c2ccccc2Cl)n1 | 2.51 µM | 3.8 | 5 | 
2 | Cc1csc(NC(=O)CSc2ncnc3c2cnn3-c2ccccc2)n1 | > 100 µM |  |  | 
3 | O=C(CSc1ncnc2c1cnn2-c1ccccc1Cl)Nc1ccccc1 | > 100 µM | 4.3 | 5 | 
4 | Cc1ccc(NC(=O)CSc2ncnc3c2cnn3-c2ccccc2Cl)nc1 | 0.501 µM | 4.2 | 5 | 
5 | O=C(CSc1ncnc2c1cnn2-c1ccccc1Cl)Nc1ncccn1 | > 100 µM | 2.2 | 5 | 
6 | Cn1ccc(NC(=O)CSc2ncnc3c2cnn3-c2ccccc2Cl)n1 | 15.8 µM | 2.5 | 5 | 
7 | Cc1csc(NC(=O)COc2ncnc3c2cnn3-c2ccccc2Cl)n1 | 1.58 µM | 3.2 |  | 
8 | COCC[C@H](Oc1ncnc2c1cnn2-c1ccccc1Cl)C(=O)Nc1ccc(C)cn1 | 0.0501 µM | 3.9 |  | IC50 [2]: 22 µM; CLint (Hepatocyte): 35 µL/min/1e6 cells; solubility [3]: 95 µM (≈ 43 µg/mL); Vd [4]: 3.2 L/kg; clearance [5]: 34 mL/min/kg; bioavailability [6]: 53%
9 | COCC[C@H](Oc1ncnc2c1cnn2-c1ccccc1C(F)(F)F)C(=O)Nc1ccc(C)cn1 |  |  |  | CLint (Hepatocyte): 27 µL/min/1e6 cells
10 | COCC[C@H](Oc1ncnc2c1cnn2-c1ccccc1OC)C(=O)Nc1ccc(C)cn1 | 0.126 µM | 3.5 |  | IC50 [2]: > 33 µM; CLint (Hepatocyte): 132 µL/min/1e6 cells; solubility [3]: 86 µM (≈ 38.6 µg/mL)
11 | CCCCC(Sc1ncnc2c1cnn2-c1ccccc1Cl)C(=O)Nc1nc(C)cs1 (racemic) | 0.631 µM | 6.4 | 5 | 
12 | COCCC(Sc1ncnc2c1cnn2-c1ccccc1Cl)C(=O)Nc1nc(C)cs1 (racemic) | 0.794 µM | 4.8 | 5 | 
13 | COCCOCCC(Sc1ncnc2c1cnn2-c1ccccc1Cl)C(=O)Nc1nc(C)cs1 (racemic) | 3.16 µM | 4.7 | 5 | 
14 | Cc1csc(NC(=O)C(Sc2ncnc3c2cnn3-c2ccccc2Cl)c2ccccc2)n1 (racemic) | > 100 µM | 5.6 | 5 | 
15 | CCCCC(Oc1ncnc2c1cnn2-c1ccccc1Cl)C(=O)Nc1nc(C)cs1 (racemic) | 0.126 µM | 5.7 |  | 
16 | COCCC(Oc1ncnc2c1cnn2-c1ccccc1Cl)C(=O)Nc1ccc(C)cn1 (racemic) | 0.1 µM | 4.1 |  | 
17 | COCCC(Oc1ncnc2c1cnn2-c1ccccc1C)C(=O)Nc1ccc(C)cn1 (racemic) | 0.316 µM | 4.2 |  | 
18 | COCCC(Oc1ncnc2c1cnn2-c1ccccc1OC)C(=O)Nc1ccc(C)cn1 (racemic) | 0.2 µM | 3.5 |  | 
